Reference: patent US20230346717A1, “IDENTIFICATION AND USE OF COMPOUNDS IN THE TREATMENT OR PREVENTION OF SEVERE ACUTE RESPIRATORY SYNDROME CORONAVIRUS 2” (priority 2020, published 2023)
Counter-ions that a name gives are not always drawn.

Tests used:
[1] = system: CTSL; assay type: cell-based, human; details: ARPE-19/HPV-16 cells, 10 μM drug, 24 hours
[2] = sepsis-induced acute lung injury in rats; cited from earlier work
[3] = rats; cited from earlier work
[4] = people with nonalcoholic fatty liver disease; cited from earlier work
[5] = people with heart failure; cited from earlier work
[6] = people with diabetes; cited from earlier work
[7] = people with dyslipidemia; cited from earlier work
[8] = system: FYCO1; assay type: cell-based, human; details: ARPE-19 cells
[9] = within 14 days of treatment; cited from earlier work
[10] = 230 ventilated patients with ALI; cited from earlier work
[11] = 492 patients; cited from earlier work
[12] = 404 ALI patients and 177 controls; cited from earlier work

CN1[C@@H]2CC[C@H]1C[C@@H](OC(=O)C(CO)c1ccccc1)C2 (some centres unmarked) [Atropine Sulfate]
log2(treated) CTSL [1]: 9.63 log2
log2 difference (CTSL, treated vs control) [1]: −0.70 log2

COC1=C(OC)C(=O)C(C/C=C(\C)CC/C=C(\C)CC/C=C(\C)CC/C=C(\C)CC/C=C(\C)CC/C=C(\C)CC/C=C(\C)CC/C=C(\C)CC/C=C(\C)CCC=C(C)C)=C(C)C1=O [CoQ10, Coenzyme Q10]
pulmonary edema [2]: improved
survival [2]: improved
fibrosis in the lung and liver [3]: beneficial in attenuating fibrosis
liver and systemic markers of inflammation [4]: improves
mortality and cardiac markers [5]: improves
total cholesterol and low-density lipoprotein levels [6]: improve
endothelial dysfunction [7]: improve

Cc1ccc(/C(=C\CN2CCCC2)c2ccccn2)cc1 [Triprolidine Hydrochloride]
log2(treated) CTSL [1]: 9.54 log2
log2 difference (CTSL, treated vs control) [1]: −0.79 log2
FYCO1 expression, Difference (treated vs control) [8]: −1.4935
FYCO1 expression, Treated [8]: 6.4963

O=C1NC(=O)C(c2ccccc2)(c2ccccc2)N1 [Phenytoin]
log2(treated) CTSL [1]: 9.56 log2
log2 difference (CTSL, treated vs control) [1]: −0.70 log2

CC(C)c1c(C(=O)Nc2ccccc2)c(-c2ccccc2)c(-c2ccc(F)cc2)n1CC[C@@H](O)C[C@@H](O)CC(=O)O [Atorvastatin]
decrease of the level of CoQ10 [9]: 49%

CN(C)CCC(c1ccc(Br)cc1)c1ccccn1 (centres unmarked) [Brompheniramine Maleate]
log2(treated) CTSL [1]: 9.57 log2
log2 difference (CTSL, treated vs control) [1]: −0.75 log2

CCC1(c2ccccc2)C(=O)NCNC1=O [primidone]
FYCO1 expression, Difference (treated vs control) [8]: −1.4959
FYCO1 expression, Treated [8]: 6.4453

COc1ccc2c(c1)c(CC(=O)O)c(C)n2C(=O)c1ccc(Cl)cc1 [indomethacin]
FYCO1 expression, Difference (treated vs control) [8]: −1.539
FYCO1 expression, Treated [8]: 4.949

NCC(CC(=O)O)c1ccc(Cl)cc1 (centres unmarked) [Baclofen]
log2(treated) CTSL [1]: 9.58 log2
log2 difference (CTSL, treated vs control) [1]: −0.82 log2
FYCO1 expression, Difference (treated vs control) [8]: −1.2190
FYCO1 expression, Treated [8]: 6.7222

CC(C)(C)C(=O)Oc1ccc(S(=O)(=O)Nc2ccccc2C(=O)NCC(=O)O)cc1 [sivelestat]
30-day survival rate [10]: no significant effect
ICU stay [10]: shortened
duration of mechanical ventilation [10]: reduced
28-day all-cause mortality [11]: no effect
ventilator free days [11]: no effect
number of ventilator free days [12]: significantly improved
